# What was measured:
# [1] = system: muscle stem cells (MuSCs); assay: MuSC numbers in muscle of NR-fed young and aged mice (FACS, PAX7 staining); assay type: in vivo, C57BL/6J mice; settings: for MuSC numbers (FACS): NR 400 mg/kg/day in diet for 6 weeks, FIG. 3A-C
# Procedure: Animals. Young (1 month old) and aged (20-24 months old) C57BL/6JRj mice, purchased from Janvier Labs, and five weeks old male C57BL/10SnJ mice or C57BL/10ScSn-Dmdmdx/J, purchased from The Jackson Laboratory, were fed with pellets containing vehicle or NR (400 mg/kg/day) for 6-8 weeks. The pellets were prepared by mixing powdered chow diet (D12450B, Research Diets Inc.) with water or with NR dissolved in water. Pellets were dried under a laminar flow hood for 48 hours. All mice were housed in micro-isolator cages in a room illuminated from 7:00 am -7:00 pm with ad libitum access to diet and water. FACS based muscle stem cell isolation. Gastrocnemius, soleus, quadriceps, and tibialis anterior muscles from both limbs were excised and transferred into PBS on ice. All muscles were trimmed, minced and digested with 0.1 mg/ml of type II collagenase (Sigma) in PBS for 15 min at 37° C. Samples were then centrifuged at 750 g for 5 min and further digested in 1 mg/ml of collagenase/dispase (Roche) for 30 mins at 37° C. Muscle slurries were sequentially filtered through 100, 70 and 40 μm cell strainers. The isolated cells were then washed in washing buffer (PBS+2.5% FBS) then resuspended in 200 μl of washing buffer and immediately stained with antibodies, including the MuSC markers CD31 (1:800, eBioscience, eFluor450 conjugated); CD34 (1:200, eBioscience, eFluor660 conjugated); CD45 (1:200, eBioscience, eFluor450 conjugated); CD11b (1:400, eBioscience, eFluor450 conjugated); Sca-1 (1:1000, eBioscience, PE-Cy7 conjugated); and α7 integrin (1:300, MBL) for 30 min at 4° C. Secondary staining was performed with a mixture of goat anti-mouse antibody (1:800, Life technologies, Alexa Fluor 488 conjugated) and propidium Iodide (PI, Sigma) for 15 min at 4° C. in the dark. Stained cells were analysed and sorted using the FACSAria II instrument (BD Biosciences). Debris and dead cells were excluded by forward scatter, side scatter and PI gating. Cells were sorted either directly on slides for immunostaining and into TriPure (Roche) reagent for RNA extraction. Histology. […]
# MuSCs [2] = assay: Myogenesis (colony formation) assay; assay type: cell-based, C57BL/6J mice; settings: MuSCs isolated from NR-treated aged mice
# Procedure: Myogenesis assay. Five MuSCs were sorted directly into wells of a Matrigel-coated 96-well cell culture plate, containing MuSC growth medium (F10, 20% FBS, 2.5 ng/ml bFGF, 1×pen/strep), using the automated cell deposition unit (ACDU) of the FACSAria II instrument (BD Biosciences). Cells were cultured at 37° C. for 5 days. Cell colony formations were counted using the DM IL LED Inverted Microscope (Leica) after fixation in freshly made or defrosted 4% paraformaldehyde (PFA) for 10 min.
# muscle = assay: Cardiotoxin-induced muscle damage in NR-treated Mdx mice; assay type: in vivo
# Procedure: Cardiotoxin-induced muscle damage. Animals were anesthetized using Isoflurane in oxygen from a precision vaporizer. 50 μl of 20 μM Naje mossambica mossambica cardiotoxin (Sigma) was injected intramuscularly cross the skin and directly into the tibialis anterior (TA) muscle. Mice were sacrificed at 7 and 14 days after injury. TA muscles were immediately embedded in Thermo Scientific™ Shandon™ Cryomatrix™ and frozen in isopentane, cooled in liquid nitrogen, for 2 mins before being transferred to dry ice and stored at −80° C.
# Histology. TA muscles were harvested from anaesthetized mice and immediately frozen in Tissue-TEK® OCT compound (PST). 8-μm cryosections were collected and fixed with 4% paraformaldehyde, which are either stained with haematoxylin/eosin (HE) or antibodies. For immunostainings, heat activated antigen retrieval was performed in pH 6.0 citrate buffer for 10 min at 65° C. After washing with PBS-0.1% tween 20 (PBST), the sections were blocked with 10% affinipure Fab goat anti mouse IgG (Jackson Immunoresearch) in PBST for 60 min and PBST containing 2% BSA and 5% goat serum for 30 min at room temperature. Primary antibodies were then applied over night at 4° C. The following antibodies were used: anti-eMHC (Developmental Studies Hybridoma Bank, DSHB, University of Iowa), anti-Pax7 (DSHB, University of Iowa), anti-Laminin (Sigma). […]
# MuSCs [3] = assay: Senescence marker staining of MuSCs from Mdx mice (β-galactosidase, γH2AX, cleaved caspase-3); assay type: cell-based; settings: for senescence by β-galactosidase staining: FIG. 6J
# Procedure: β-galactosidase assay. MuSCs were sorted directly and cultured primary MuSCs were grown on 8 chamber slides (Thermo Scientific). Senescence-associated β-galactosidase activity was detected using the senescence β-galactosidase staining kit (Cell signaling), according to manufacturer's instructions. Cardiotoxin-induced muscle damage and Histology as described in Example 2. The following antibodies were used: anti-eMHC (Developmental Studies Hybridoma Bank, DSHB, University of Iowa), anti-Pax7 (DSHB, University of Iowa), anti-γH2AX […] (Millipore) and anti-activated-caspase3 (Cell signaling).
# [4] = MuSCs of NR-treated Mdx mice, cultured three generations, FIG. 6K
smiles,measurement,setting,value
"NC(=O)c1ccc[n+]([C@@H]2O[C@H](CO)[C@@H](O)[C@H]2O)c1 [NR, nicotinamide riboside]",MuSC numbers (FACS),[1]; aged mice,attenuated the loss of MuSC numbers during aging
same,MuSC numbers by PAX7 staining of TA muscle,"[1]; aged mice, NR diet, FIG. 3D",increase in aged MuSC numbers was confirmed
same,MuSC numbers (FACS),[1]; young mice,evoking gains in younger mice
same,myogenic colony formation (proliferation ability),MuSCs [2],enhanced potential to form myogenic colonies
same,regenerated muscle fibers (eMyHC),"muscle; 7 days after CTX, FIG. 6F",increase in regenerated muscle fibers
same,CTX-induced muscle regeneration (H/E),"muscle; 7 days of recovery, FIG. 6L",muscle regeneration was improved
same,senescence by β-galactosidase staining,MuSCs [3]; MuSCs from Mdx mice additionally treated with NR in vitro (6 hours),further reduction in senescence
same,senescence by β-galactosidase staining,MuSCs [3]; MuSCs isolated from NR-treated Mdx mice,less prone to senescence
same,cleaved caspase-3 immunostaining,MuSCs [3]; [4],attenuation
same,γH2AX immunostaining,MuSCs [3]; [4],attenuation
